The values that follow come from ChEMBL document CHEMBL3638788, “Benzoxazines, benzothiazines, and related compounds having NOS inhibitory activity” (2013).

Experiment [1] has as its target Nitric oxide synthase, inducible (Homo sapiens, UniProt P35228). The experiment can be described thus: Enzyme Assay: Recombinant human inducible NOS (iNOS) was produced in Baculovirus-infected Sf9 cells (ALEXIS). In a radiometric method, NO synthase activity was determined by measuring the conversion of [3H]L-arginine to [3H]L-citrulline. To measure iNOS, 10 uL of enzyme was added to 100 uL of 100 mM HEPES, pH=7.4, containing 1 mM CaCl2, 1 mM EDTA, 1 mM dithiothreitol, 1 uM FMN, 1 uM FAD, 10 uM tetrahydrobiopterin, 120 uM NADPH, and 100 nM CaM. To measure enzyme inhibition, a 15 uL solution of a test substance was added to the enzyme assay solution, followed by a pre-incubation time of 15 min at RT. The reaction was initiated by addition of 20 uL L-arginine containing 0.25 uCi of [3H] arginine/mL and 24 uM L-arginine. The total volume of the reaction mixture was 150 uL in every well.

The next experiment concerns the target Nitric oxide synthase 1 (Homo sapiens, UniProt P29475). Kind of experiment: (§1) Enzyme Assay: Primary stock solutions of test compounds at a concentration of 6 mM were prepared from the 2 to 5 mg powder. The primary stock solutions of each test compound were prepared freshly in distilled water on the day of study to obtain a final concentration of 6 mM. For determination of IC50 values, 12 test compound concent rations were prepared as 3-fold serial dilutions. Concentration range of test compound utilized for nNOS were 0.001 to 300 μM and for eNOS were 0.003 to 10 00 μM. The vehicle of the test compound or inhibitor was used as blank control. For non-specific activity, 100 μM L-NMMA was used. Runs using the IC50 concentration of L-NAME were done in parallel as controls. All incubations are performed in duplicate.

For the next experiment, the target named is T1, Nitric oxide synthase 3 (Homo sapiens, UniProt P29474).
T1 sequence (P29474 whole entry): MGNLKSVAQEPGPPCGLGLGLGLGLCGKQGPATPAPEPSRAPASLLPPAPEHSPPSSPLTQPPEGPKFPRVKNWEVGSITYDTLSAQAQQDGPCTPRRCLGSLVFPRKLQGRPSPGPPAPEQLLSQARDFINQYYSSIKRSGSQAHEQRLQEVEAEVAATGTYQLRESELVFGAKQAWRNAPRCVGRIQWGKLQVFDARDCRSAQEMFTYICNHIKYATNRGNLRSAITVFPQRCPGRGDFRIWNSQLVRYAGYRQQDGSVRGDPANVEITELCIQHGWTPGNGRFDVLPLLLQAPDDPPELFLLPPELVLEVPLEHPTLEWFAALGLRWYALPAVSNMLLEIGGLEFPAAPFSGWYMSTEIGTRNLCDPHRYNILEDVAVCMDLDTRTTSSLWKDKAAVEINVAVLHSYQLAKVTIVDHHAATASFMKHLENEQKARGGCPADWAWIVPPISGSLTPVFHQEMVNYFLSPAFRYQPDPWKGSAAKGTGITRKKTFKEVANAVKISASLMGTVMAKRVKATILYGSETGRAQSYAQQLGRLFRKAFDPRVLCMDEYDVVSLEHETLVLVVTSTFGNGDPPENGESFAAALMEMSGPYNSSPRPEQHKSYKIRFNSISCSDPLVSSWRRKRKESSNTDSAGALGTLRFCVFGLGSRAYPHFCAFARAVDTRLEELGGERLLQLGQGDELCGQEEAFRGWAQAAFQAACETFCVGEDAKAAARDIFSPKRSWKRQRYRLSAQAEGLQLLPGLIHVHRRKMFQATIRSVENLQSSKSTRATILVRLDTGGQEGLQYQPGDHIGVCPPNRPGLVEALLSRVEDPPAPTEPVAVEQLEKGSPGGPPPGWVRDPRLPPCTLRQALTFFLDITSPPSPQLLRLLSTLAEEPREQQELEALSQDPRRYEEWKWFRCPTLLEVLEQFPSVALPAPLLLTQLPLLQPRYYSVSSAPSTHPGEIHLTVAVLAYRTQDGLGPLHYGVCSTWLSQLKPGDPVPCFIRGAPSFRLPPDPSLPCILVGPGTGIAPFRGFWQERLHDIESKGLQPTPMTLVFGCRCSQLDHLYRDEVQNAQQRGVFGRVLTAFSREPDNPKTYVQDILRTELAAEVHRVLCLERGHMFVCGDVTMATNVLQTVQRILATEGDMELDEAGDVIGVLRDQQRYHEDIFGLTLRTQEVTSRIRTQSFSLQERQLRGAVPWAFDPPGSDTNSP
The description is as §1.

pIC50: −log10 of the molar value. Where only a bound is given, the exact number is not on record here.

Sequence of Nitric oxide synthase 1 (P29475 whole entry): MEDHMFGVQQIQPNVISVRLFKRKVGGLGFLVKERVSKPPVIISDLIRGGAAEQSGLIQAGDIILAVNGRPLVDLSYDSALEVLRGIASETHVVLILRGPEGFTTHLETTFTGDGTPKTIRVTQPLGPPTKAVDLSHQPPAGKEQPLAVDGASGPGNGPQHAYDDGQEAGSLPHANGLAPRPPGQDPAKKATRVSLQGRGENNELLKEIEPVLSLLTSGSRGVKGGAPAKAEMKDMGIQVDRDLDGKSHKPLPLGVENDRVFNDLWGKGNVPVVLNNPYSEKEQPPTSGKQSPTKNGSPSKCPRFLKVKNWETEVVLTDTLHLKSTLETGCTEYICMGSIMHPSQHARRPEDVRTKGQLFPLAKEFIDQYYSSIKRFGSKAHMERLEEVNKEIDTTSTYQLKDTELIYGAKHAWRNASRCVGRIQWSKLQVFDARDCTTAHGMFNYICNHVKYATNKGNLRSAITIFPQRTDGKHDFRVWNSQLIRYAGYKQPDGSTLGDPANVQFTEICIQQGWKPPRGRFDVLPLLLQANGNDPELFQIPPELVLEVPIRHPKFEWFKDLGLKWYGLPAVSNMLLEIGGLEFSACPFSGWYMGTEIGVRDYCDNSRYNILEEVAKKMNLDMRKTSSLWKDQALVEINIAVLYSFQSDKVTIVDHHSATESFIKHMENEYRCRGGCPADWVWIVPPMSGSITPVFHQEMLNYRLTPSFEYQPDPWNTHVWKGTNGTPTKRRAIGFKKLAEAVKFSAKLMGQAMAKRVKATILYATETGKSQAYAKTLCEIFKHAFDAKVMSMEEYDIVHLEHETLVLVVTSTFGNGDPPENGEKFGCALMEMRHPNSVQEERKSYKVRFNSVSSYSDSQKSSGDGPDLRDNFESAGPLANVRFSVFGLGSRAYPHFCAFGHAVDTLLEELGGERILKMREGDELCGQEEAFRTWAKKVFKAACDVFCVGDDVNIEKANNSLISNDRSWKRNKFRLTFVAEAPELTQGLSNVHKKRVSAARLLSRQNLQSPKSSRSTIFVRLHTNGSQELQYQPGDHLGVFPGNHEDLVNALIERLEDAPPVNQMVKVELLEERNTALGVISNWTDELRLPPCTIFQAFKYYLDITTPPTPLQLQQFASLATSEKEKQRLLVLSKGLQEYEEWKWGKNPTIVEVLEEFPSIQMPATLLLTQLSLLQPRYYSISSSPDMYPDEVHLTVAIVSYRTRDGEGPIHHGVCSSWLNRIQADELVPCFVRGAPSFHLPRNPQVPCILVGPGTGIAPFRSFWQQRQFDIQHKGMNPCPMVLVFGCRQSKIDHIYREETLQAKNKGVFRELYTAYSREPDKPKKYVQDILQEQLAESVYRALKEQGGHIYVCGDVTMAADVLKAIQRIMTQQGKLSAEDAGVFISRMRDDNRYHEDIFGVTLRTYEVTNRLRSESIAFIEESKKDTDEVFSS
Sequence of Nitric oxide synthase, inducible (P35228 whole entry): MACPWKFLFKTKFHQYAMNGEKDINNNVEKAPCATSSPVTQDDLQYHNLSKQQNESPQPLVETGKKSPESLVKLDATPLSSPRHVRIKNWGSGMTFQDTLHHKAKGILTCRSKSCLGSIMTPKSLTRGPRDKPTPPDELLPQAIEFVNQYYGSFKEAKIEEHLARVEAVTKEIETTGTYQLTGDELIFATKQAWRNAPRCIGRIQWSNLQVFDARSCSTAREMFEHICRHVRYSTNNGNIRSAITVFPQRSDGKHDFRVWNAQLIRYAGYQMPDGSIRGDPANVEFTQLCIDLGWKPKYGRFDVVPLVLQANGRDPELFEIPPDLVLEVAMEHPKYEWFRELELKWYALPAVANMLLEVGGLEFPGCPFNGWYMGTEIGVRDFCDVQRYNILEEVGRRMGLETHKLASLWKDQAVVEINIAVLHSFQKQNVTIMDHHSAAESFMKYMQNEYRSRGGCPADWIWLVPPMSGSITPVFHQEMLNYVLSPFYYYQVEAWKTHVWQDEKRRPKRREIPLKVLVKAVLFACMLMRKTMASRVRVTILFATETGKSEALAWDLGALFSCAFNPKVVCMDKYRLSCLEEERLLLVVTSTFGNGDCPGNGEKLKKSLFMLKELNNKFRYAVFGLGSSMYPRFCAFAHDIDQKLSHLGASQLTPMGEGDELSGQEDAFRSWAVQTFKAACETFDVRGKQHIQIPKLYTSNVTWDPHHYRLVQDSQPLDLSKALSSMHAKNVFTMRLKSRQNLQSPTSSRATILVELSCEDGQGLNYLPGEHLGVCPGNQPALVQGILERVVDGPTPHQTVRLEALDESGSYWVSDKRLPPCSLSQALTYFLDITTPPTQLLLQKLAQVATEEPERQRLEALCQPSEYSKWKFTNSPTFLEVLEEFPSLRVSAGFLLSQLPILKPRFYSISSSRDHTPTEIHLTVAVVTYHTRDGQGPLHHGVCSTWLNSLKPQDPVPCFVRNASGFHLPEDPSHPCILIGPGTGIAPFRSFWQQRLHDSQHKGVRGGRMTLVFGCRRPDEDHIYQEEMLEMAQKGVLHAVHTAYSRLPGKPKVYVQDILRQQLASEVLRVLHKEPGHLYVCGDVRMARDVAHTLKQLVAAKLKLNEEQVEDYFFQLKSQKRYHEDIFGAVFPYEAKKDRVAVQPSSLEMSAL

In general, pIC50 refers to the IC50 on a negative log10 scale, so that one unit is a factor of ten. Consider `CN1CCCC1CCN1CCOc2cc(/N=C(\N)c3cccs3)ccc21` (stereo not given), for which the figures for the pIC50 (in experiment [1]; at Nitric oxide synthase 1) were 4.97 and 6.37, respectively.
On to `CN1CCCC1CCN1C(=O)COc2cc(NC(=N)c3cccs3)ccc21` (stereo not given), for which the values for the pIC50 (in experiment [1]; against Nitric oxide synthase 3; on Nitric oxide synthase 1) were < 4.00, 4.06 and 5.68, respectively.
